Experimental data as given in US8283361B2 (AstraZeneca AB, priority 2008, dated 2012).
≈ marks a conversion by molar mass, not a printed value.

The compounds below were run against S. aureus GyrB ATPase (Staphylococcus aureus, UniProt P0A0K8) (assay: biochemical). Settings: compound at 1 μM; one value per test if tested more than once; read-out: % Inhibition of S. aureus GyrB ATPase.
Chain of S. aureus GyrB ATPase (P0A0K8 whole entry): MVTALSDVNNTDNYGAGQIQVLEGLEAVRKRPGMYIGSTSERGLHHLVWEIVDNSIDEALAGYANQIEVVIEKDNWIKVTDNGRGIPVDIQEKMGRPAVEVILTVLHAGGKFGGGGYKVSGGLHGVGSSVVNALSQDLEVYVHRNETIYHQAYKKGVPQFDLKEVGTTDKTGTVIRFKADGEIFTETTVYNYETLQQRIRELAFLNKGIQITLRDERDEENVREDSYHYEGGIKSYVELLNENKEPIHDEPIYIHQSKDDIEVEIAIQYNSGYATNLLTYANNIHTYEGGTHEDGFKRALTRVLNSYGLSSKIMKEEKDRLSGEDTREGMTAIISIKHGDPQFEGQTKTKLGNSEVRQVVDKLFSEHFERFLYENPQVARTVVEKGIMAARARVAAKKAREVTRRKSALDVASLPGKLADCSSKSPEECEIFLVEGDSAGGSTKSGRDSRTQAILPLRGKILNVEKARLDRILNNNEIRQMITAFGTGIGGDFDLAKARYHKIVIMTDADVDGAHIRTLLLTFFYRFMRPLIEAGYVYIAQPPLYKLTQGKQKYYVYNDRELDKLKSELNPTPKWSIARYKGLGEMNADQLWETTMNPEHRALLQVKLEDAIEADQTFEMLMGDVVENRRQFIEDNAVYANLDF
Chain of S. aureus GyrB ATPase (P0AES4 whole entry, further chain): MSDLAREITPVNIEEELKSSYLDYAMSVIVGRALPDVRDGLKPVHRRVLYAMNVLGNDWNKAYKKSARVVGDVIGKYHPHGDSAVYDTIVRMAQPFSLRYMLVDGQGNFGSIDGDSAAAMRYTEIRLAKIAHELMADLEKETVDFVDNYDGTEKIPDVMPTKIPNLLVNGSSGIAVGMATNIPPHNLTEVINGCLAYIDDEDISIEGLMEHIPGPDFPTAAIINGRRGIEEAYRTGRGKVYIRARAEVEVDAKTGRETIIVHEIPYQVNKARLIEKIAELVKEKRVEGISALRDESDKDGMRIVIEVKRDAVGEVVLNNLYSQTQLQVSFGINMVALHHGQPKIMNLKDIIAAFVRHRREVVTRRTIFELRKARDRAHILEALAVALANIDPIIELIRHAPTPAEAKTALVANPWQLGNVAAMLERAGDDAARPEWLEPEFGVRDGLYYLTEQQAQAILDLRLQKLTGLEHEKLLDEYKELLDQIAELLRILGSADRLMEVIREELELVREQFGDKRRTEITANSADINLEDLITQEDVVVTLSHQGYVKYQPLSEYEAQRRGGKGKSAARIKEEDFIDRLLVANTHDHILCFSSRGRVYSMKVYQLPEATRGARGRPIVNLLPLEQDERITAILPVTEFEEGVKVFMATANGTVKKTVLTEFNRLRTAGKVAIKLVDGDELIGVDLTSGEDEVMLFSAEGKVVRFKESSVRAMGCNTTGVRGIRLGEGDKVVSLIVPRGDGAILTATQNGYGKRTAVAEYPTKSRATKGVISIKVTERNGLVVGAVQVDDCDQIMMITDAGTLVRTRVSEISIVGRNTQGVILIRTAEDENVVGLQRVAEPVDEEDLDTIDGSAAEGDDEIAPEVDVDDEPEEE
How it was run: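 IC50 values derive from 10-point titrations of compound (in DMSO). Phosphate formed from 250 μM ATP was quantified by acidic molybdate/malachite green after quenching.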
In the case of `CCNC(=O)Nc1cc(-c2nc(C(F)(F)F)cs2)c(-c2ccc3c(=O)c(C(=O)O)cn(CC)c3c2)cn1` [Example 9, 1-ethyl-7-(6-(3-ethylureido)-4-(4-trifluoromethylthiazol-2-yl)pyridin-3-yl)-4-oxo-1,4-dihydroquinoline-3-carboxylic acid], the inhibition at 1 µM was 106%.
In the case of `CCNC(=O)Nc1cc(-c2nc(C(F)(F)F)cs2)c(-c2ccc3c(=O)c(C(=O)NCCCO)cn(CC4CC4)c3c2)cn1` [Example 376, 1-(Cyclopropylmethyl)-7-{6-[(ethylcarbamoyl)amino]-4-[4-(trifluoromethyl)-1,3-thiazol-2-yl]pyridin-3-yl}-N-(3-hydroxypropyl)-4-oxo-1,4-dihydroquinoline-3-carboxamide], the inhibition at 1 µM was 108%.
Work on `CCNC(=O)Nc1cc(-c2nc(C(F)(F)F)cs2)c(-c2ccc3c(=O)c(C(=O)NCCN(C)C)cn(CC4CC4)c3c2)cn1` [Example 377, 1-(Cyclopropylmethyl)-N-[2-(dimethylamino)ethyl]-7-{6-[(ethylcarbamoyl)amino]-4-[4-(trifluoromethyl)-1,3-thiazol-2-yl]pyridin-3-yl}-4-oxo-1,4-dihydroquinoline-3-carboxamide] yielded an inhibition at 1 µM of 106%.
In the case of `CCNC(=O)Nc1cc(-c2nc(C(F)(F)F)cs2)c(-c2ccc3c(=O)c(C(=O)NCCN4CCOCC4)cn(CC4CC4)c3c2)cn1` [Example 378, 1-(Cyclopropylmethyl)-7-{6-[(ethylcarbamoyl)amino]-4-[4-(trifluoromethyl)-1,3-thiazol-2-yl]pyridin-3-yl}-N-[2-(morpholin-4-yl)ethyl]-4-oxo-1,4-dihydroquinoline-3-carboxamide], the inhibition at 1 µM was 107%.
Compound `CCNC(=O)Nc1cc(-c2nc(C(F)(F)F)cs2)c(-c2ccc3c(=O)c(C(=O)NCCN4CCN(C)CC4)cn(CC4CC4)c3c2)cn1` [Example 379, 1-(Cyclopropylmethyl)-7-{6-[(ethylcarbamoyl)amino]-4-[4-(trifluoromethyl)-1,3-thiazol-2-yl]pyridin-3-yl}-N-[2-(4-methylpiperazin-1-yl)ethyl]-4-oxo-1,4-dihydroquinoline-3-carboxamide] has an inhibition at 1 µM of 97%.

Each compound was assayed on Streptococcus pneumoniae (assay: Bacterial susceptibility testing in liquid media (MIC)). Settings: against Streptococcus pneumoniae; lowest concentration reducing growth by 80% or more.
Format: cell-based
From the text: Compounds may be tested for antimicrobial activity by susceptibility testing in liquid media. Compounds may be dissolved in dimethylsulfoxide and tested in 10 doubling dilutions in the susceptibility assays. The organisms used in the assay may be grown overnight on suitable agar media and then suspended in a liquid medium appropriate for the growth of the organism. The suspension can be a 0.5 McFarland and a further 1 in 10 dilution can be made into the same liquid medium to prepare the final organism suspension in 100 μL. Plates can be incubated under appropriate conditions at 37° C. for 24 hrs prior to reading. The Minimum Inhibitory Concentration (MIC) may be determined as the lowest drug concentration able to reduce growth by 80% or more.
Compound `CCNC(=O)Nc1cc(-c2nc(C(F)(F)F)cs2)c(-c2ccc3c(=O)c(C(=O)O)cn(CC)c3c2)cn1` [Example 9, 1-ethyl-7-(6-(3-ethylureido)-4-(4-trifluoromethylthiazol-2-yl)pyridin-3-yl)-4-oxo-1,4-dihydroquinoline-3-carboxylic acid] has an MIC of 0.02 µM (≈ 0.0106 µg/mL).
